Source: PubChem BioAssay (NCI)
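Compound exposure: 48 hours, 5 concentrations, 96-well plates. TGI: concentration producing complete growth inhibition.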

Legend:
Experiment in all cases: NCI-60 cell line screen, 48 h
[1] = system: NCI/ADR-RES ovarian
[2] = system: BT-549 breast
[3] = system: 786-0 renal
[4] = system: U251 CNS
[5] = system: HT29 colon
[6] = system: CAKI-1 renal
[7] = system: MDA-MB-231 breast
[8] = system: SK-OV-3 ovarian
[9] = system: MCF7 breast
[10] = system: MALME-3M melanoma
[11] = system: OVCAR-3 ovarian
[12] = system: OVCAR-8 ovarian
[13] = system: IGROV1 ovarian
[14] = system: HCC-2998 colon
[15] = system: SF-268 CNS
[16] = system: EKVX NSCLC
[17] = system: A498 renal
[18] = system: DU-145 prostate
[19] = system: SNB-75 CNS
[20] = system: HCT-15 colon
[21] = system: NCI-H460 lung
[22] = system: OVCAR-5 ovarian
[23] = system: SN12C renal
[24] = system: ACHN renal
[25] = system: SNB-19 CNS
[26] = system: MOLT-4 leukemia
[27] = system: MDA-N
[28] = system: HOP-62 NSCLC
[29] = system: TK-10 renal
[30] = system: SR leukemia
[31] = system: HCT-116 colon
[32] = system: SF-539 CNS
[33] = system: K-562 leukemia
[34] = system: SW-620 colon
[35] = system: RPMI-8226 leukemia
[36] = system: NCI-H23 lung
[37] = system: SK-MEL-2 melanoma
[38] = system: NCI-H522 lung
[39] = system: A549 NSCLC
[40] = system: SK-MEL-28 melanoma
[41] = system: KM12 colon
[42] = system: OVCAR-4 ovarian
[43] = system: CCRF-CEM leukemia
[44] = system: PC-3 prostate
[45] = system: NCI-H226 lung
[46] = system: COLO 205 colon
[47] = system: UACC-257 melanoma
[48] = system: MDA-MB-435
[49] = system: LOX IMVI melanoma
[50] = system: M14 melanoma
[51] = system: UACC-62 melanoma
[52] = system: SK-MEL-5 melanoma
[53] = system: SF-295 CNS
[54] = system: HOP-92 NSCLC
[55] = system: UO-31 renal
[56] = system: HS 578T breast
[57] = system: RXF 393 renal
[58] = system: T-47D breast

CCCc1c(OC)c(O)c2c(=O)cc(OC)c3c4c(OC)cc(=O)c5c(O)c(OC)c(CCC)c(c1c23)c54
TGI [1]: 25.1 µM | TGI [2]: 19.8 µM | TGI [3]: 13.5 µM | TGI [4]: 6.41 µM | TGI [5]: 17.9 µM | TGI [6]: 16.5 µM | TGI [7]: 8.54 µM | TGI [8]: 76.5 µM | TGI [9]: 26.5 µM | TGI [10]: 10.7 µM | TGI [11]: 13.1 µM | TGI [12]: 22.6 µM | TGI [13]: 16.2 µM | TGI [14]: 34.9 µM | TGI [15]: 19.6 µM | TGI [16]: 15.3 µM | TGI [17]: 31 µM | TGI [18]: 13.2 µM | TGI [19]: 23.6 µM | TGI [20]: 22.9 µM | TGI [21]: 18.1 µM | TGI [22]: 51.1 µM | TGI [23]: 15.3 µM | TGI [24]: 17 µM | TGI [25]: 16.8 µM | TGI [26]: 5.69 µM | TGI [27]: 22.7 µM | TGI [28]: 18.9 µM | TGI [29]: > 100 µM | TGI [30]: > 100 µM | TGI [31]: 13.2 µM | TGI [32]: 34.7 µM | TGI [33]: > 100 µM | TGI [34]: 16.9 µM | TGI [35]: > 100 µM | TGI [36]: 26.6 µM | TGI [37]: 22.1 µM | TGI [38]: 9.53 µM | TGI [39]: 25.8 µM | TGI [40]: 21.1 µM | TGI [41]: 53.7 µM | TGI [42]: 32.7 µM | TGI [43]: 50.1 µM | TGI [44]: 11.9 µM | TGI [45]: 14.8 µM | TGI [46]: 14.9 µM | TGI [47]: > 100 µM | TGI [48]: 14.3 µM | TGI [49]: 4.91 µM | TGI [50]: 20.4 µM | TGI [51]: 59.9 µM | TGI [52]: 11.5 µM | TGI [53]: 31.6 µM | TGI [54]: 37.4 µM | TGI [55]: 11 µM

NC(=O)c1ncn(C2CCC(CP(=O)(O)O)C2)c1N (stereo not drawn)
TGI [1]: > 100 µM | TGI [3]: > 100 µM | TGI [4]: > 100 µM | TGI [5]: > 100 µM | TGI [56]: > 100 µM | TGI [6]: > 100 µM | TGI [7]: > 100 µM | TGI [8]: > 100 µM | TGI [9]: > 100 µM | TGI [10]: > 100 µM | TGI [11]: > 100 µM | TGI [12]: > 100 µM | TGI [13]: > 100 µM | TGI [14]: > 100 µM | TGI [15]: > 100 µM | TGI [16]: > 100 µM | TGI [18]: > 100 µM | TGI [19]: > 100 µM | TGI [20]: > 100 µM | TGI [21]: > 100 µM | TGI [22]: > 100 µM | TGI [23]: > 100 µM | TGI [24]: > 100 µM | TGI [25]: > 100 µM | TGI [57]: > 100 µM | TGI [26]: > 100 µM | TGI [27]: > 100 µM | TGI [28]: > 100 µM | TGI [29]: > 100 µM | TGI [30]: > 100 µM | TGI [31]: > 100 µM | TGI [32]: > 100 µM | TGI [34]: > 100 µM | TGI [35]: > 100 µM | TGI [36]: > 100 µM | TGI [37]: > 100 µM | TGI [39]: > 100 µM | TGI [40]: > 100 µM | TGI [41]: > 100 µM | TGI [42]: > 100 µM | TGI [44]: > 100 µM | TGI [45]: > 100 µM | TGI [46]: > 100 µM | TGI [47]: > 100 µM | TGI [48]: > 100 µM | TGI [49]: > 100 µM | TGI [50]: > 100 µM | TGI [51]: > 100 µM | TGI [52]: > 100 µM | TGI [53]: > 100 µM | TGI [58]: > 100 µM | TGI [54]: > 100 µM | TGI [55]: > 100 µM
